According to ChEMBL document CHEMBL3585308, “Discovery and Modification of in Vivo Active Nrf2 Activators with 1,2,4-Oxadiazole Core: Hits Identification and Structure-Activity Relationship Study” (J Med Chem, 2015):
In brackets after ≈: the same amount, converted by molar mass.

target: T1, Nuclear factor erythroid 2-related factor 2 (Homo sapiens) (UniProt Q16236); assay: Activation of Nrf2 in human HepG2-ARE-C8 cells assessed as upregulation of ARE level at 80 uM after 12 hrs by luciferase reporter gene assay relative to control; assay type: cell-based; settings: not given
T1 sequence (whole entry): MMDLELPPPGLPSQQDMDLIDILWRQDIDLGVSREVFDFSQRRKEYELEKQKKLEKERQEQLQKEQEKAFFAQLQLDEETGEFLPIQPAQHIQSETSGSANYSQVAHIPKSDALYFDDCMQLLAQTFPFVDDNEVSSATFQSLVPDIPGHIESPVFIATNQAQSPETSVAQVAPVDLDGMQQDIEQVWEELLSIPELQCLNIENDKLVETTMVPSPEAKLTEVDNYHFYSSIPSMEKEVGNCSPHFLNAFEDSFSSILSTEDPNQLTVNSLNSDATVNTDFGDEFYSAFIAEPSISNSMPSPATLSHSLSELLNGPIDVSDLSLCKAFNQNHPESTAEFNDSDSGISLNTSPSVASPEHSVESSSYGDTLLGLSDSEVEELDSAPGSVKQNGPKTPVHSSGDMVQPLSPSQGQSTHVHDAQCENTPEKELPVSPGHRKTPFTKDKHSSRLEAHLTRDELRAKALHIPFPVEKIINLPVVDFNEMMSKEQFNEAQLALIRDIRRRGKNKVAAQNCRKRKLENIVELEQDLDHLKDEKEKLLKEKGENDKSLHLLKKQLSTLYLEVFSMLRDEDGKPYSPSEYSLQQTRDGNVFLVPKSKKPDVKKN

SMILES | fold change (FC)
O=[N+]([O-])c1ccc(-c2nc(-c3ccc4nc[nH]c4c3)no2)cc1 | 30.6
Cc1nc2cc(-c3noc(-c4ccccc4Br)n3)ccc2o1 | 5.88
COc1ccc(OC)c(-c2nc(-c3ccc4nc[nH]c4c3)no2)c1 | 3.7
O=[N+]([O-])c1ccccc1-c1nc(-c2ccc3nc[nH]c3c2)no1 | 42.6
c1ccc2cc(-c3nc(-c4ccc5nc[nH]c5c4)no3)ccc2c1 | 13.4

Other lines, results leading:

fold change (FC) | SMILES
17.9 | FC(F)(F)c1ccccc1-c1nc(-c2ccc3nc[nH]c3c2)no1
3.19 | c1ccc(-c2nc(-c3ccc4nc[nH]c4c3)no2)cc1
14.1 | Clc1ccc(-c2nc(-c3ccc4nc[nH]c4c3)no2)cc1
4.05 | Oc1cccc(-c2nc(-c3ccc4nc[nH]c4c3)no2)c1

target: T1, Nuclear factor erythroid 2-related factor 2 (Homo sapiens); assay: Activation of Nrf2 in human HepG2-ARE-C8 cells assessed as upregulation of ARE level at 0.02 uM after 12 hrs by luciferase reporter gene assay relative to control; assay type: cell-based; settings: not given

SMILES | fold change (FC)
O=[N+]([O-])c1ccc(-c2nc(-c3ccc4nc[nH]c4c3)no2)cc1 | 1.64
Cc1nc2cc(-c3noc(-c4ccccc4Br)n3)ccc2o1 | 1.18
COc1ccc(OC)c(-c2nc(-c3ccc4nc[nH]c4c3)no2)c1 | 1.7
O=[N+]([O-])c1ccccc1-c1nc(-c2ccc3nc[nH]c3c2)no1 | 1.73
c1ccc2cc(-c3nc(-c4ccc5nc[nH]c5c4)no3)ccc2c1 | 1.42

Further lines, results first:

fold change (FC) | SMILES
1.23 | FC(F)(F)c1ccccc1-c1nc(-c2ccc3nc[nH]c3c2)no1
1.49 | c1ccc(-c2nc(-c3ccc4nc[nH]c4c3)no2)cc1
2.03 | Clc1ccc(-c2nc(-c3ccc4nc[nH]c4c3)no2)cc1
1.68 | Oc1cccc(-c2nc(-c3ccc4nc[nH]c4c3)no2)c1

target: T1, Nuclear factor erythroid 2-related factor 2 (Homo sapiens); assay: Activation of Nrf2 in human HepG2-ARE-C8 cells assessed as upregulation of ARE level at 2 uM after 12 hrs by luciferase reporter gene assay relative to control; assay type: cell-based; settings: not given

SMILES | fold change (FC)
O=[N+]([O-])c1ccc(-c2nc(-c3ccc4nc[nH]c4c3)no2)cc1 | 6.59
Cc1nc2cc(-c3noc(-c4ccccc4Br)n3)ccc2o1 | 1.47
COc1ccc(OC)c(-c2nc(-c3ccc4nc[nH]c4c3)no2)c1 | 3.21
O=[N+]([O-])c1ccccc1-c1nc(-c2ccc3nc[nH]c3c2)no1 | 12.1
c1ccc2cc(-c3nc(-c4ccc5nc[nH]c5c4)no3)ccc2c1 | 3.47

The remaining lines, values ahead:

fold change (FC) | SMILES
9.01 | FC(F)(F)c1ccccc1-c1nc(-c2ccc3nc[nH]c3c2)no1
14.2 | c1ccc(-c2nc(-c3ccc4nc[nH]c4c3)no2)cc1
7.25 | Clc1ccc(-c2nc(-c3ccc4nc[nH]c4c3)no2)cc1
2.44 | Oc1cccc(-c2nc(-c3ccc4nc[nH]c4c3)no2)c1

test system: HCT-116; assay: Cytotoxicity against human HCT116 cells assessed as reduction of cell proliferation at 80 uM after 24 hrs by MTT assay; assay type: cell-based; settings: hct-116, 24 h

SMILES | Activity
O=[N+]([O-])c1ccc(-c2nc(-c3ccc4nc[nH]c4c3)no2)cc1 | Non-toxic
FC(F)(F)c1ccccc1-c1nc(-c2ccc3nc[nH]c3c2)no1 | Non-toxic
c1ccc(-c2nc(-c3ccc4nc[nH]c4c3)no2)cc1 | Non-toxic
Clc1ccc(-c2nc(-c3ccc4nc[nH]c4c3)no2)cc1 | Non-toxic
COc1ccc(OC)c(-c2nc(-c3ccc4nc[nH]c4c3)no2)c1 | Non-toxic
Oc1cccc(-c2nc(-c3ccc4nc[nH]c4c3)no2)c1 | Non-toxic
O=[N+]([O-])c1ccccc1-c1nc(-c2ccc3nc[nH]c3c2)no1 | Non-toxic
c1ccc2cc(-c3nc(-c4ccc5nc[nH]c5c4)no3)ccc2c1 | Non-toxic

target: T1, Nuclear factor erythroid 2-related factor 2 (Homo sapiens); assay: Activation of Nrf2 in human HepG2-ARE-C8 cells assessed as upregulation of ARE level at 50 uM after 12 hrs by luciferase reporter gene assay relative to control; assay type: cell-based; settings: not given

fold change (FC) | SMILES
5.47 | Cc1nc2cc(-c3noc(-c4ccccc4Br)n3)ccc2o1

target: T1, Nuclear factor erythroid 2-related factor 2 (Homo sapiens); assay: Activation of Nrf2 in human HepG2-ARE-C8 cells assessed as upregulation of ARE level at 20 uM after 12 hrs by luciferase reporter gene assay relative to control; assay type: cell-based; settings: not given

SMILES | fold change (FC)
O=[N+]([O-])c1ccc(-c2nc(-c3ccc4nc[nH]c4c3)no2)cc1 | 15.6
Cc1nc2cc(-c3noc(-c4ccccc4Br)n3)ccc2o1 | 3.31
COc1ccc(OC)c(-c2nc(-c3ccc4nc[nH]c4c3)no2)c1 | 4.48
O=[N+]([O-])c1ccccc1-c1nc(-c2ccc3nc[nH]c3c2)no1 | 36.6
c1ccc2cc(-c3nc(-c4ccc5nc[nH]c5c4)no3)ccc2c1 | 6.72

Other lines, results leading:

fold change (FC) | SMILES
19.1 | FC(F)(F)c1ccccc1-c1nc(-c2ccc3nc[nH]c3c2)no1
21.4 | c1ccc(-c2nc(-c3ccc4nc[nH]c4c3)no2)cc1
15.5 | Clc1ccc(-c2nc(-c3ccc4nc[nH]c4c3)no2)cc1
8.62 | Oc1cccc(-c2nc(-c3ccc4nc[nH]c4c3)no2)c1

target: T1, Nuclear factor erythroid 2-related factor 2 (Homo sapiens); assay: Activation of Nrf2 in human HepG2-ARE-C8 cells assessed as upregulation of ARE level at 40 uM after 12 hrs by luciferase reporter gene assay relative to control; assay type: cell-based; settings: not given

SMILES | fold change (FC)
O=[N+]([O-])c1ccc(-c2nc(-c3ccc4nc[nH]c4c3)no2)cc1 | 36.7
Cc1nc2cc(-c3noc(-c4ccccc4Br)n3)ccc2o1 | 4.05
COc1ccc(OC)c(-c2nc(-c3ccc4nc[nH]c4c3)no2)c1 | 4.24
O=[N+]([O-])c1ccccc1-c1nc(-c2ccc3nc[nH]c3c2)no1 | 53.6
c1ccc2cc(-c3nc(-c4ccc5nc[nH]c5c4)no3)ccc2c1 | 7.57

Other lines, results leading:

fold change (FC) | SMILES
24.2 | FC(F)(F)c1ccccc1-c1nc(-c2ccc3nc[nH]c3c2)no1
23.7 | c1ccc(-c2nc(-c3ccc4nc[nH]c4c3)no2)cc1
18.5 | Clc1ccc(-c2nc(-c3ccc4nc[nH]c4c3)no2)cc1
4.18 | Oc1cccc(-c2nc(-c3ccc4nc[nH]c4c3)no2)c1

test system: not listed separately; assay: Intrinsic aqueous solubility of the compound by potentiometric titration method; assay type: physicochemical; settings: read-out: Intrinsic_solubility

solubility [µM] | SMILES
14 (≈ 4.62 µg/mL) | FC(F)(F)c1ccccc1-c1nc(-c2ccc3nc[nH]c3c2)no1
12.3 (≈ 3.23 µg/mL) | c1ccc(-c2nc(-c3ccc4nc[nH]c4c3)no2)cc1
49.5 (≈ 14.7 µg/mL) | Clc1ccc(-c2nc(-c3ccc4nc[nH]c4c3)no2)cc1
2.5 (≈ 0.781 µg/mL) | c1ccc2cc(-c3nc(-c4ccc5nc[nH]c5c4)no3)ccc2c1

test system: not listed separately; assay: Dissociation constant, pKa of the compound by potentiometric titration method; assay type: physicochemical; settings: not given

pKa | SMILES
4 | FC(F)(F)c1ccccc1-c1nc(-c2ccc3nc[nH]c3c2)no1
3.69 | c1ccc(-c2nc(-c3ccc4nc[nH]c4c3)no2)cc1
3.77 | Clc1ccc(-c2nc(-c3ccc4nc[nH]c4c3)no2)cc1
4.22 | c1ccc2cc(-c3nc(-c4ccc5nc[nH]c5c4)no3)ccc2c1

test system: not listed separately; assay: Permeability of the compound at pH 7.4 by PAMPA; assay type: physicochemical; settings: read-out: permeability

Papp [×10⁻⁶ cm/s] | SMILES
4.78 | FC(F)(F)c1ccccc1-c1nc(-c2ccc3nc[nH]c3c2)no1
5.26 | c1ccc(-c2nc(-c3ccc4nc[nH]c4c3)no2)cc1
10.3 | Clc1ccc(-c2nc(-c3ccc4nc[nH]c4c3)no2)cc1
8.64 | c1ccc2cc(-c3nc(-c4ccc5nc[nH]c5c4)no3)ccc2c1

target: T1, Nuclear factor erythroid 2-related factor 2 (Homo sapiens); assay: Activation of Nrf2 in human HepG2-ARE-C8 cells assessed as upregulation of ARE level at 0.2 uM after 12 hrs by luciferase reporter gene assay relative to control; assay type: cell-based; settings: not given

SMILES | fold change (FC)
O=[N+]([O-])c1ccc(-c2nc(-c3ccc4nc[nH]c4c3)no2)cc1 | 2.02
Cc1nc2cc(-c3noc(-c4ccccc4Br)n3)ccc2o1 | 1.22
COc1ccc(OC)c(-c2nc(-c3ccc4nc[nH]c4c3)no2)c1 | 2.96
O=[N+]([O-])c1ccccc1-c1nc(-c2ccc3nc[nH]c3c2)no1 | 3.76
c1ccc2cc(-c3nc(-c4ccc5nc[nH]c5c4)no3)ccc2c1 | 1.23

Further lines, results first:

fold change (FC) | SMILES
2.28 | FC(F)(F)c1ccccc1-c1nc(-c2ccc3nc[nH]c3c2)no1
4.72 | c1ccc(-c2nc(-c3ccc4nc[nH]c4c3)no2)cc1
2.79 | Clc1ccc(-c2nc(-c3ccc4nc[nH]c4c3)no2)cc1
1.71 | Oc1cccc(-c2nc(-c3ccc4nc[nH]c4c3)no2)c1

target: T1, Nuclear factor erythroid 2-related factor 2 (Homo sapiens); assay: Activation of Nrf2 in human HepG2-ARE-C8 cells assessed as upregulation of ARE level at 160 uM after 12 hrs by luciferase reporter gene assay relative to control; assay type: cell-based; settings: not given

SMILES | fold change (FC)
O=[N+]([O-])c1ccc(-c2nc(-c3ccc4nc[nH]c4c3)no2)cc1 | 38.3
Cc1nc2cc(-c3noc(-c4ccccc4Br)n3)ccc2o1 | 6
COc1ccc(OC)c(-c2nc(-c3ccc4nc[nH]c4c3)no2)c1 | 5.2
O=[N+]([O-])c1ccccc1-c1nc(-c2ccc3nc[nH]c3c2)no1 | 38.4
c1ccc2cc(-c3nc(-c4ccc5nc[nH]c5c4)no3)ccc2c1 | 16.2

Second part, the compound after the results:

fold change (FC) | SMILES
3.73 | FC(F)(F)c1ccccc1-c1nc(-c2ccc3nc[nH]c3c2)no1
4.46 | c1ccc(-c2nc(-c3ccc4nc[nH]c4c3)no2)cc1
14.2 | Clc1ccc(-c2nc(-c3ccc4nc[nH]c4c3)no2)cc1
3.93 | Oc1cccc(-c2nc(-c3ccc4nc[nH]c4c3)no2)c1

test system: not listed separately; assay: Lipophilicity, log D of the compound at pH 7.4 by potentiometric titration method; assay type: physicochemical; settings: buffer

logD | SMILES
4.01 | FC(F)(F)c1ccccc1-c1nc(-c2ccc3nc[nH]c3c2)no1
3.66 | c1ccc(-c2nc(-c3ccc4nc[nH]c4c3)no2)cc1
3.71 | Clc1ccc(-c2nc(-c3ccc4nc[nH]c4c3)no2)cc1
5.56 | c1ccc2cc(-c3nc(-c4ccc5nc[nH]c5c4)no3)ccc2c1

test system: not listed separately; assay: Chemical stability assessed as compound degradation after 2 weeks; assay type: physicochemical; settings: 336 h

Stability | SMILES
Unstable | O=[N+]([O-])c1ccc(-c2nc(-c3ccc4nc[nH]c4c3)no2)cc1
Unstable | O=[N+]([O-])c1ccccc1-c1nc(-c2ccc3nc[nH]c3c2)no1
